Test results: patent US20120172390A1, “METHOD OF TREATING SLEEP DISORDERS USING THE COMBINATION OF EPLIVANSERIN AND ZOLPIDEM” (priority 2009, published 2012)

Columns and labels:
[1] = Adverse events and tolerability in healthy individuals
Experimental: Single center study employing a two-part, double-blind, randomized, placebo- and active-controlled, 4-way crossover design (FIG. 1). Eligibility criteria included certification of good health, 18-50 years of age, and written informed consent.
Part A (the first part of the study): participants were first administered either one evening dose of flurazepam 30 mg or matching placebo, and after a 21-day washout period, participants were administered the other treatment.
Part B: participants received either an evening dose of eplivanserin 5 mg or matching placebo for 21 days, followed by co-administration with a single dose of zolpidem-IR 10 mg.
After this phase of the study, participants were then administered the reverse treatment sequence.
Adverse events were recorded (Medical Dictionary for Regulatory Activities v9.1). Other measures included vital signs, standard clinical laboratory parameters (biochemistry, hematology, and urinalysis), and electrocardiograms.

[2] = Critical Flicker Fusion (CFF) test, next-day morning; format: in vivo, human
[3] = set-up: species or system human; conditions: in vivo
[4] = Immediate recall of Word list, next-day morning; format: in vivo, human
[5] = Delayed Recall of Word Lists, next-day morning; format: in vivo, human
[6] = Compensatory Tracking Task (CTT), next-day morning; format: in vivo, human
[7] = Bond-Lader Visual Analog Scale (VAS), next-day morning; format: in vivo, human
[8] = Global analysis of the 7 primary psychomotor/cognitive endpoints (multivariate mixed effect model); format: in vivo, human
[9] = Steady-state levels after repeated administration in the study; format: in vivo, human; conditions: after 20 days of repeated administration of eplivanserin 5 mg; also for its active metabolite
Experimental: As a consequence, cognitive/psychomotor performance was assessed under steady state conditions.

[10] = in vivo; cited from earlier work
[11] = tested on: GABA receptors; conditions: unlike benzodiazepines; cited from earlier work
[12] = flurazepam 30 mg single evening dose vs placebo, P=0.0001
[13] = eplivanserin 5 mg evening dose for 21 days vs placebo, P>0.1

## Cc1ccc(-c2nc3ccc(C)cn3c2CC(=O)N(C)C)cc1 [zolpidem]
[1]; Part B, co-administration phase with single dose zolpidem-IR 10 mg
  Adverse events reported: 1/24

## CCN(CC)CCN1C(=O)CN=C(c2ccccc2F)c2cc(Cl)ccc21 [flurazepam, reference compound]
[2]; flurazepam 30 mg single evening dose vs placebo, P=0.2005
  CFF point of subjective equality, mean difference estimate: −0.52 Hz
[3]
  CRT total reaction time, mean difference estimate: 47.46 ms
[4]; [12]
  Immediate word recall number of correct responses, mean difference estimate: −3.08
[5]; [12]
  Delayed word recall number of correct responses, mean difference estimate: −4.38
[6]; flurazepam 30 mg single evening dose vs placebo, P=0.0029
  Compensatory tracking task overall average response time, mean difference estimate: 49.98 ms
[6]; flurazepam 30 mg single evening dose vs placebo, P=0.0221
  Compensatory tracking task overall average tracking errors, mean difference estimate: 1.64 pixels
[7]; flurazepam 30 mg single evening dose vs placebo, P=0.0031
  Bond and Lader visual analogue scale alertness, mean difference estimate: 62.38
[8]; flurazepam 30 mg single dose compared with placebo, P=0.0001
  Overall treatment effect on the 7 primary endpoints (global analysis): associated with an overall treatment effect
[1]; Part A, flurazepam 30 mg single dose, healthy individuals
  Adverse events reported: 2/24

## CN(C)CCO/N=C(/C=C/c1ccc(O)cc1)c1ccccc1F [eplivanserin, (1Z, 2 E)-1-(2-fluorophenyl)-3-(4-hydroxyphenyl)-prop-2-en-1-one-O-(2-dimethylaminoethyl)oxime]
[2]; eplivanserin 5 mg evening dose for 21 days vs placebo, P=0.0002
  CFF point of subjective equality, mean difference estimate: −1.01 Hz
[3]
  CRT total reaction time, mean difference estimate: -10.40 ms
[4]; [13]
  Immediate word recall number of correct responses, mean difference estimate: −1.04
[5]; [13]
  Delayed word recall number of correct responses, mean difference estimate: −0.33
[6]; [13]
  Compensatory tracking task overall average response time, mean difference estimate: 13.03 ms
  Compensatory tracking task overall average tracking errors, mean difference estimate: −0.22 pixels
[7]; [13]
  Bond and Lader visual analogue scale alertness, mean difference estimate: 9.38
[8]; eplivanserin 5 mg 21 days alone compared with placebo, P=0.0603
  Overall treatment effect on the 7 primary endpoints (global analysis): not associated with an overall treatment effect
[1]; Part B, eplivanserin 5 mg 21 days, 6/24, placebo also 25%
  Headache, participants reporting: 25%
[1]; Part B, eplivanserin 5 mg 21 days, 7/24, placebo 4.2% (1/24)
  Dizziness, somnolence and asthenia, participants reporting: 29.2%
[1]; eplivanserin 5 mg, alone and in combination with zolpidem
  Tolerability: well tolerated
[9]
  Steady-state levels: Steady-state levels were reached
[10]
  Absorption: > 70%
[11]
  Binding to GABA receptors: does not bind
